This is an account of results in patent publication US10501449B2 (priority 2018, dated 2019).

One data set deals with hERG channels (Homo sapiens (Human), UniProt Q12809). The data set can be described thus: hERG Manual Patch Clamp Assay. The class given is cell-based. The note with it: human, HEK 293 cells stably expressing hERG channels, pH 7.4, 1 uM, read-out: hERG EP % Inh @ 1 uM.
The next data set addresses hROMK (human Kir1.1) (Homo sapiens (Human), UniProt P48048). Kind of data set: cell-based. The note with it: CHO T-Rex hROMK stable cell line; thallium flux; 10-point concentration response curve; read-out: Human ROMK Th Flux IC50.

SMILES strings stand for the structures.

Sequence of hERG channels (Q12809 whole entry): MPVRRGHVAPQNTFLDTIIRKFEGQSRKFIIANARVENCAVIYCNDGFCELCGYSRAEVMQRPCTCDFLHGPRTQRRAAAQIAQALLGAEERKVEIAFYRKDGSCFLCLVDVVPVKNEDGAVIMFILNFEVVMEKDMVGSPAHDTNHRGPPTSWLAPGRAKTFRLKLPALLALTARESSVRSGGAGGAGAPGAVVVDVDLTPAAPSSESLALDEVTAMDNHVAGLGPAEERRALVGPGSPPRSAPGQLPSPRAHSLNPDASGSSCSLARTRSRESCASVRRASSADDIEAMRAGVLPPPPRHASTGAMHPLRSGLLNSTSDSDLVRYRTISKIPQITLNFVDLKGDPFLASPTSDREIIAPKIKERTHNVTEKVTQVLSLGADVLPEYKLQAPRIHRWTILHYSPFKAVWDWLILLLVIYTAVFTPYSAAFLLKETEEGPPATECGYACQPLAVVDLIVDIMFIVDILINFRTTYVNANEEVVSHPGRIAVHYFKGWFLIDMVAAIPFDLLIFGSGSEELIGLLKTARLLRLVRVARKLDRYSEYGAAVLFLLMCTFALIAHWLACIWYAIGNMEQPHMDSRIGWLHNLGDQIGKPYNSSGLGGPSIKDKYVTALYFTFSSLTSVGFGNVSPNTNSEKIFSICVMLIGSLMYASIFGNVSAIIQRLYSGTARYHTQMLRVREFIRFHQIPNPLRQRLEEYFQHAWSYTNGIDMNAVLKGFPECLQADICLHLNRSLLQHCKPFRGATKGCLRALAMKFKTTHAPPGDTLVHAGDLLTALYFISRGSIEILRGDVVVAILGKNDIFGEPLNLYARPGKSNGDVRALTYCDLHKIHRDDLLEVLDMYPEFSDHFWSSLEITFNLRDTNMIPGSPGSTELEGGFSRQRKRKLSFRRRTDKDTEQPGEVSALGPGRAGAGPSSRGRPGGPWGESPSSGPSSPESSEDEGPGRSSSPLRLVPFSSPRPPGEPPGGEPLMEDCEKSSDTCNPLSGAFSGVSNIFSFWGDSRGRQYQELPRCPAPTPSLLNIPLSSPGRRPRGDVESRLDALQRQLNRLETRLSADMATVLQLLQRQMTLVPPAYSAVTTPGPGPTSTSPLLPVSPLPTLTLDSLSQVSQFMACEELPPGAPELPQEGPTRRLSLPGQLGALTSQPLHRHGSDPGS
Sequence of hROMK (human Kir1.1) (P48048 whole entry): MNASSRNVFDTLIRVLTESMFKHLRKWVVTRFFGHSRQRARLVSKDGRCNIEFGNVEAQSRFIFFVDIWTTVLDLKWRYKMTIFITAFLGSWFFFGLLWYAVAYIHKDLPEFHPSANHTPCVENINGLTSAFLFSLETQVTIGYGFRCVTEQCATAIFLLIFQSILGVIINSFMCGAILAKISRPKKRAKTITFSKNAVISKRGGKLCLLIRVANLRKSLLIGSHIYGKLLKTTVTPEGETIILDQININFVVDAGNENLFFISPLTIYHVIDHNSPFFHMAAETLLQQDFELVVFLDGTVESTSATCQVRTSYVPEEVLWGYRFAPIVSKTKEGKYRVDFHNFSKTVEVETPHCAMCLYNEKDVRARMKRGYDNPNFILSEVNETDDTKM
Experimental for hERG channels: hERG electrophysiology assay: The experimental compounds were assessed for hERG activity on HEK 293 cells stably expressing hERG channels using patch clamp technique. Coverslips plated with hERG expressing cells were placed in the experimental chamber and were perfused with a solution composed of (in mM): 140 NaCl, 4 KCl, 1.8 CaCl2, 1 MgCl2, 10 Glucose, 10 HEPES (pH 7.4, NaOH) at room temperature. Borosilicate patch pipettes had tip resistances of 2-4 Mohms when filled with an internal solution containing: 130 KCl, 1 MgCl2, 1 CaCl2, 10 EGTA, 10 HEPES, 5 ATP-K2 (pH 7.2, KOH). The cells were clamped at −80 mV in whole cell configuration using an Axopatch 200B (Axon instruments, Union City, Calif.) patch clamp amplifier controlled by pClamp (Axon instruments) software. Upon formation of a gigaseal, the following voltage protocol was repeatedly (0.05 Hz) applied to record tail currents: depolarization step from −80 mV to +20 mV for 2 seconds followed by a hyperpolarization step to −65 mV (3 seconds) to elicit tail currents. Compounds were applied after stabilization of tail current. First, tail currents were recorded in presence of extracellular solution alone (control) and subsequently, in extracellular solution containing increasing compound concentrations. Each compound concentration was applied for 2-5 minutes. The percentage inhibition at each concentration was calculated as reduction in peak tail current with respect to the peak tail current recorded in the presence of control solution. Data analysis was performed in a custom made template. The percent inhibitions at different concentrations were plotted to obtain a concentration response curve, which was subsequently fitted with a four parameter equation to calculate hERG IC50 value.

For the molecule `COc1cc(-n2cc(CN3CC(CO)NC(c4ccc5c(c4C)COC5=O)C3)cn2)ncc1C#N` (single isomer, unassigned) [Example 89-III], the inhibition at 1 µM on hERG channels is 14%.

For the molecule `COc1cc(N2CCC(CN3CCN[C@H](c4ccc5c(c4C)COC5=O)C3)C2)ncc1C#N` (single isomer, unassigned) [Example 154-I], on hERG channels, the inhibition at 1 µM is 43%.

Regarding `Cc1cc(-n2cc(CN3CC(c4ccc5c(c4C)COC5=O)OC(C)(C)C3)cn2)ncc1C#N` (single isomer, unassigned) [Example 256-II, 6-(4-((2,2-dimethyl-6-(4-methyl-1-oxo-1,3-dihydroisobenzofuran-5-yl)morpholino)methyl)-1H-pyrazol-1-yl)-4-methylnicotinonitrile], the inhibition at 1 µM at hERG channels worked out at 13%.

On to `Cc1cc(-n2cc(CN3CC(=O)N[C@H](c4ccc5c(c4C)COC5=O)C3)cn2)ncc1C#N` [Example 15-I, (R)-4-methyl-6-(4-((3-(4-methyl-1-oxo-1,3-dihydroisobenzofuran-5-yl)-5-oxopiperazin-1-yl)methyl)-1H-pyrazol-1-yl)nicotinonitrile], for which the inhibition at 1 µM at hERG channels was 5.8%.

As to `Cc1c([C@@H]2CN(Cc3cnn(-c4ccc(C#N)nc4)c3)CCO2)ccc2c1COC2=O` [Example 48-I, (R)-5-(4-((2-(4-methyl-1-oxo-1,3-dihydroiso-benzofuran-5-yl)morpho-lino)methyl)-1H-pyrazol-1-yl)picolinonitrile], the inhibition at 1 µM on hERG channels was found to be 78%.

As for `COc1cc(-n2cc(CN3CCO[C@H](c4ccc5c(c4C)COC5=O)C3)cn2)ccc1C#N` [Example 49-I, (R)-2-methoxy-4-(4-((2-(4-methyl-1-oxo-1,3-dihydroisobenzofuran-5-yl)morpholino)methyl)-1H-pyrazol-1-yl) benzonitrile], the inhibition at 1 µM on hERG channels is 27%.

For the molecule `Cc1cc(-n2cnc(CN3C[C@@H](c4ccc5c(c4C)COC5=O)N[C@@H](C)C3)c2)ncc1C#N` [Example 98-I, 4-methyl-6-(4-(((3S,5R)-3-methyl-5-(4-methyl-1-oxo-1,3-dihydroisobenzofur-an-5-yl)piperazin-1-yl)methyl)-1H-imidazol-1-yl)nicotinonitrile], on hERG channels, the inhibition at 1 µM came out at 9.3%.

As for `COc1cc(-n2ncc(CN3CC[C@@H](O)[C@H](c4ccc5c(c4C)COC5=O)C3)n2)ncc1C#N` [Example 111-I, 6-(4-(((3R,4R)-4-hydroxy-3-(4-methyl-1-oxo-1,3-dihydroisobenzofur-an-5-yl)piperidin-1-yl)methyl)-2H-1,2,3-triazol-2-yl)-4-methoxynicotinonit-rile], the inhibition at 1 µM at hERG channels turned out to be 5.1%.

With `Cc1cc(-n2cc(CN3CCNC(c4ccc5c(c4C)COC5=O)C3C)cn2)ncc1C#N` (stereo not shown) [Example 115-I, 4-methyl-6-(4-((2-methyl-3-(4-methyl-1-oxo-1,3-dihydroisobenzofuran-5-yl)piperazin-1-yl)methyl)-1H-pyrazol-1-yl)nicotinonitrile], the inhibition at 1 µM at hERG channels was determined as 45%.

With `Cc1cn(-c2ccc(CN3CCN[C@H](c4ccc5c(c4C)COC5=O)C3)nn2)cn1` [Example 153-I, (R)-4-methyl-5-(4-((6-(4-methyl-1H-imidazol-1-yl)pyridazin-3-yl)methyl)piperazin-2-yl)isobenzofuran-1(3H)-one], the inhibition at 1 µM on hERG channels came to 10%.

As to `Cc1cc(-n2nc(C)c(CN3CCN[C@H](c4ccc5c(c4C)COC5=O)C3)n2)ncc1C#N` [Example 169-I, (R)-4-methyl-6-(4-methyl-5-((3-(4-methyl-1-oxo-1,3-dihydroisobenzofuran-5-yl)piperazin-1-yl)methyl)-2H-1,2,3-triazol-2-yl)nicotinonitrile], on hERG channels, the inhibition at 1 µM turned out to be 12%.

For orientation: IC50 means the concentration needed to halve the response being measured. Consider `Cc1cnc(-n2cc(CN3C[C@@H](c4ccc5c(c4C)COC5=O)N[C@@H](C)C3)cn2)cn1` [Example 206-I, 4-methyl-5-((2R,6S)-6-methyl-4-((1-(5-methylpyrazin-2-yl)-1H-pyrazol-4-yl)methyl)piperazin-2-yl)isobenzofuran-1(3H)-one], for which, on hROMK (human Kir1.1), the concentration for half-maximal inhibition (IC50) is 82 nM.

In the case of `COc1ncc(-n2cc(CN3C[C@@H](c4ccc5c(c4C)COC5=O)N[C@@H](C)C3)cn2)cn1` [Example 208-I, 5-((2R,6S)-4-((1-(2-methoxypyrimidin-5-yl)-1H-pyrazol-4-yl)methyl)-6-methylpiperazin-2-yl)-4-methylisobenzofuran-1(3H)-one], on hROMK (human Kir1.1), the IC50 is 190 nM.

On to `Cc1ncc(-n2cc(CN3C[C@@H](c4ccc5c(c4C)COC5=O)N[C@@H](C)C3)cn2)cn1` [Example 209-I, 4-methyl-5-((2R,6S)-6-methyl-4-((1-(2-methylpyrimidin-5-yl)-1H-pyrazol-4-yl)methyl)piperazin-2-yl)isobenzofuran-1(3H)-one], for which the IC50 at hROMK (human Kir1.1) was found to be 100 nM.

In the case of `Cc1cn(-c2ncc(CN3CCO[C@H](c4ccc5c(c4C)COC5=O)C3)cn2)cn1` [Example 224-I, (R)-4-methyl-5-(4-((2-(4-methyl-1H-imidazol-1-yl)pyrimidin-5-yl)methyl)morpholin-2-yl)isobenzofuran-1(3H)-one], the IC50 on hROMK (human Kir1.1) amounted to 27 nM.

Take `Cc1cc(-n2cc(CN3CCC(=O)C(c4ccc5c(c4C)COC5=O)C3)cn2)ncc1C#N` (stereo not shown) [Example 232-I, 4-methyl-6-(4-((3-(4-methyl-1-oxo-1,3-dihydroisobenzofuran-5-yl)-4-oxopiperidin-1-yl)methyl)-1H-pyrazol-1-yl)nicotinonitrile]: the IC50 at hROMK (human Kir1.1) turned out to be 480 nM.

As for `Cc1c([C@@H]2CN(Cc3cnc(-n4cncn4)nc3)CCN2)ccc2c1COC2=O` [Example 234-I, (R)-5-(4-((2-(1H-1,2,4-triazol-1-yl)pyrimidin-5-yl)methyl)piperazin-2-yl)-4-methylisobenzofuran-1(3H)-one], the half-inhibitory concentration (IC50) at hROMK (human Kir1.1) was 78 nM.

As to `Cc1c([C@@H]2CN(Cc3ccc(-n4cnc(C(F)F)c4)nc3)CCN2)ccc2c1COC2=O` [Example 235-I, (R)-5-(4-((6-(4 (difluoromethyl)-1H-imidazol-1-yl)pyridin-3-yl)methyl)piperazin-2-yl)-4-methylisobenzofuran-1(3H)-one], the half-inhibitory concentration (IC50) on hROMK (human Kir1.1) worked out at 83 nM.

On to `Cc1c([C@@H]2CN(Cc3ccc(-c4ccc(=O)n(C)c4)nc3)C[C@H](C)N2)ccc2c1COC2=O` [Example 238-I, 1′-methyl-5-(((3S,5R)-3-methyl-5-(4-methyl-1-oxo-1,3-dihydroisobenzofuran-5-yl)piperazin-1-yl)methyl)-[2,3′-bipyridin]-6′(1′H)-one], for which, at hROMK (human Kir1.1), the IC50 was determined as 470 nM.

`Cc1cc(-n2ncc(CN3C[C@H](C)N(O)[C@H](c4ccc5c(c4C)COC5=O)C3)n2)ncc1C#N` [Example 246-I, 6-(4-(((3S,5R)-4-hydroxy-3-methyl-5-(4-methyl-1-oxo-1,3-dihydroisobenzofuran-5-yl)piperazin-1-yl)methyl)-2H-1,2,3-triazol-2-yl)-4-methylnicotinonitrile]: on hROMK (human Kir1.1), the IC50 was found to be 870 nM.

Turning to `Cc1cc(-n2ccc(CN3C[C@@H](c4ccc5c(c4C)COC5=O)N[C@@H](C)C3)cc2=O)ncc1C#N` [Example 247-I, 4′-methyl-4-(((3S,5R)-3-methyl-5-(4-methyl-1-oxo-1,3-dihydroisobenzofuran-5-yl)piperazin-1-yl)methyl)-2-oxo-2H-[1,2′-bipyridine]-5′-carbonitrile], at hROMK (human Kir1.1), the half-inhibitory concentration (IC50) was 330 nM.

Take `Cc1cc(N2CCCS2(=O)=O)cc(-n2cc(CN3C[C@@H](c4ccc5c(c4C)COC5=O)N[C@@H](C)C3)cn2)n1` [Example 253-I, 5-((2R,6S)-4-((1-(4-(1,1-dioxidoisothiazolidin-2-yl)-6-methylpyridin-2-yl)-1H-pyrazol-4-yl)methyl)-6-methylpiperazin-2-yl)-4-methylisobenzofuran-1(3H)-one]: the half-maximal inhibitory concentration (IC50) at hROMK (human Kir1.1) turned out to be 400 nM.

As for `COc1cc(N2CC(CN3C[C@@H](c4ccc5c(c4C)COC5=O)N[C@@H](C)C3)CC2=O)ccn1` (stereo partly drawn) [Example 254-I, 1-(2-methoxypyridin-4-yl)-4-(((3S,5R)-3-methyl-5-(4-methyl-1-oxo-1,3-dihydroisobenzofuran-5-yl)piperazin-1-yl)methyl)pyrrolidin-2-one], the IC50 on hROMK (human Kir1.1) turned out to be 1600 nM.

In the case of `CNC(=O)c1nn(-c2cc(OC)c(C#N)cn2)cc1CN1CCN[C@H](c2ccc3c(c2C)COC3=O)C1` [Example 260-I, (R)-1-(5-cyano-4-methoxypyridin-2-yl)-N-methyl-4-((3-(4-methyl-1-oxo-1,3-dihydroisobenzofuran-5-yl)piperazin-1-yl)methyl)-1H-pyraozl-3-carboxamide], the concentration for half-maximal inhibition (IC50) at hROMK (human Kir1.1) came to 430 nM.

Turning to `COc1cc(-n2cc(CN3CCN[C@H](c4ccc5c(c4C)COC5=O)C3)c(C(N)=O)n2)ncc1C#N` [Example 262-I, (R)-1-(5-cyano-4-methoxypyridin-2-yl)-4-((3-(4-methyl-1-oxo-1,3-dihydroisobenzofuran-5-yl)piperazin-1-yl)methyl)-1H-pyrazole-3-carboxamide], at hROMK (human Kir1.1), the half-inhibitory concentration (IC50) was 120 nM.

In the case of `Cc1noc(-c2ccc(CN3CCN[C@H](c4ccc5c(c4C)COC5=O)C3)cn2)n1` [Example 264-I, (R)-4-methyl-5-(4-((6-(3-methyl-1,2,4-oxadiazol-5-yl)pyridin-3-yl)methyl)piperazin-2-yl)isobenzofuran-1(3H)-one], the IC50 on hROMK (human Kir1.1) is 580 nM.

For `Cc1c([C@@H]2CN(Cc3cnn(-c4ccn(C(F)F)c(=O)c4)n3)C[C@H](C)N2)ccc2c1COC2=O` [Example 270-I, 1-(difluoromethyl)-4-(4-(((3S,5R)-3-methyl-5-(4-methyl-1-oxo-1,3-dihydroisobenzofuran-5-yl)piperazin-1-yl)methyl)-2H-1,2,3-triazol-2-yl)pyridin-2(1H)-one], the IC50 on hROMK (human Kir1.1) was 580 nM.

As for `Cc1c([C@@H]2CN(Cc3cn(-c4ccnc(C(F)F)n4)cn3)C[C@H](C)N2)ccc2c1COC2=O` [Example 271-I, 5-((2R,6S)-4-((1-(2-(difluoromethyl)pyrimidin-4-yl)-1H-imidazol-4-yl)methyl)-6-methylpiperazin-2-yl)-4-methylisobenzofuran-1(3H)-one], the 50% inhibitory concentration (IC50) at hROMK (human Kir1.1) worked out at 100 nM.
